Columns and labels:
[1] = In-vitro transdermal delivery across porcine ear skin in vertical diffusion cell (active infusion microneedle patch)
Description: (§1) Porcine ears were freshly obtained from a local slaughter facility, gently washed with running tap water, and chopped into pieces of 50 mm in width. Visual observation was done to check if the skins were free from lesions and infections. Hairs at the back of the ear were carefully removed by clipper. Full thickness skins were obtained using manual-operated dermatome with uniform insertion force and angle. The split skins were cut into discs with 40 mm diameter. The skins were then sprayed and rubbed with 75% ethanol for 1 mm to remove fatty tissues and dirt, followed by DI water washing. Thereafter the skins were blotted with a cellulose-based fiber tissue, such as […] ™, wrapped with aluminum foil, and stored in a −20° C. refrigerator until further use. All prepared porcine skin was used within 2 weeks.
(§2) Vertical diffusion cell was filled with 7 mL phosphate buffered saline (PBS) (137 mM sodium chloride (NaCl), 2.7 mM potassium chloride (KCl), 4.3 mM sodium phosphate dibasic heptahydrate (NaH2PO4.7H2O), and 1.6 mM potassium phosphate monobasic (KH2PO4), pH 7.4) and pre-run at 300 rpm with bath circulator for 1 hr to achieve 37° C. Porcine skin was thawed by soaking in PBS at room temperature for 1 hr. After that, the porcine skin was mounted between the receptor and the donor cell of the diffusion system. The stratum corneum of the skin faced the donor cell while the dermis side faced the receptor cell. The skin was handled with care to avoid bubble accumulation on the receptor side of the skin. Diclofenac sodium (DFS) or insulin (70 μL) and DI water (500 μL) were loaded into the drug and water reservoirs, respectively, through the resealable injector ports. A patch, such as those described in previous examples, was gently shaken to ensure water could make contact with the dried hydrogel inside. The patch was applied on the donor side of the skin by finger force, with the help of adhesive tapes to keep the patch in position. Samples (1 mL) were withdrawn from the receptor cell every hour with immediate replenishment of the same volume of fresh PBS. The tests were done with patches bonded with commercial (ME-C-600), zeolite (SSM-O-150), or plastic (P-O-500) microneedles.
(§3) Quantification of DFS in samples was done by analysis under ultra-performance liquid chromatography (UPLC). With a gradient method A:B=70%:30% to 10%: 90% in 4 min (A=0.02% trifluoroacetic acid (TFA) in H2O; B=0.02% TFA in acetonitrile (ACN)), flow rate=0.45 mL/min with detection wavelength=210 nm. […] Negative control is achieved by direct pipetting of a known amount of drug on skin for diffusion.
(§4) A plastic microneedle plate was used in this experiment.

[2] = pig, 8 h, pH 7.4
Description: as §1, §2, §3, §4

[3] = In-vivo DFS delivery across skin by microneedle plates; parameters: species or system Sprague Dawley rats; details: 200 μl of 5 mg/ml DFS bolus, skin sampled after 5 min
Description: A in-vivo test was conducted on Sprague Dawley rates between approximately 230 g-250 g to analyze DFS delivery. […] 200 μl of 5 mg/ml DFS in phosphate buffered saline (PBS) was injected through rats' naked skin with either zeolite microneedles or commercial microneedles in bolus. A negative control consisted of placing excess DFS solution on rats' naked skin. After 5 min, the skins were washed by iced DI water. About 1 mm diameter of skin samples at the injection sites were carefully cut and then weighed in 2 ml centrifuge tubes. Then the skin samples were homogenized in 5 fold PBS buffer by sonication. DFS was extracted from the homogenate by liquid-phase extraction using 500 μl ethyl-acetate for twice. The ethyl-acetate was collected into 1.5 ml centrifuge tubes and then removed under vacuum. The residues were reconstituted by 500 μl ACN:H2O (50:50 w/w ratio) and 200 μl of the reconstituted solution was send for UPLC analysis.

[4] = insulin administration by the transdermal patch, compared with other groups
Description: An in vivo test of insulin delivery was conducted on Sprague Dawley rats weighing between approximately 230 g-250 g, which were fasting overnight, but free to access water one day before the test. The rats were anesthetized by a ketamine/xylazine cocktail, and the abdominal hairs were completely removed by a hair clipper followed by chemical depilatory creams. About 80 μl of 100 IU/ml human insulin solution was transdermal administrated to individual rats by either zeolite microneedles or the same type of commercial microneedles used in Example 12. Fixed dosed 0.1 IU insulin solution or saline was also subcutaneously injected by syringes to simulate the positive and negative control respectively. The rats' blood glucose levels were recorded by a portable glucose meter (Roche, Accu-Chek Performa Nano) for 6 hours at different time intervals. For the first 4 hours 200 μl of blood samples were also collected by squeezing the rats' tails. The blood samples were centrifuge at 13000 G for 3 min and then the blood plasma was pipetted into 1.5 ml centrifuge tubes and stored under −80° C. for blood insulin test. The blood insulin levels were tested by an ELISA kit (Mercodia, Human Insulin ELISA). […]
In pharmacokinetics, the administration efficiency of a certain drug is commonly evaluated by its Cmax and Tmax. […]

blood glucose level [5] = details: micro-needles and pressure force (10 psi); cited from earlier work
blood glucose level [6] = assay: In-vivo insulin delivery, blood glucose level; parameters: species or system Sprague Dawley rats; details: after 1 hour
Description: For all zeolite microneedle, commercial microneedle, and the positive control, a significant pharmaceutical effect could be observed after 1 hour, when the blood glucose level of the rats dropped by about 4-fold from the original level and was subsequently maintained for some hours.

DFS delivery rate ([1]; zeolite microneedle plate adhered to the patch, versus negative control) | Percentage of DFS delivered [2] | Total amount of drug delivered [2] | increase of transdermal DFS delivery compared with the negative control ([3]; commercial microneedle) | increase in delivery amount compared with the commercial microneedle ([3]; zeolite microneedle) | Molecule | insulin delivery rate profile ([1]; active infusion patch with zeolite and commercial microneedles) | insulin permeated across skin ([1]; non-porated pig skin, skin patch test (negative control), 70 μL of 4.5 mg/mL insulin) | Cmax (blood insulin level) [4] | Tmax (blood insulin level) [4] | lowering of normalized blood glucose level (blood glucose level [5]) | drop of blood glucose level from the original level (blood glucose level [6]; commercial microneedle, about 80 μl of 100 IU/ml human insulin) | drop of blood glucose level from the original level (blood glucose level [6]; positive control: 0.1 IU insulin subcutaneously injected by syringe) | drop of blood glucose level from the original level (blood glucose level [6]; zeolite microneedle, about 80 μl of 100 IU/ml human insulin)
improves delivery rates | 17.6±3.2% | 60.9±6.1% | ~5 times | more than 3 fold | O=C(O)Cc1ccccc1Nc1c(Cl)cccc1Cl [DFS, Diclofenac sodium] |  |  |  |  |  |  |  | 
 |  |  |  |  | insulin | linear insulin delivery rate | less than 5% | highest | fastest | 70% | about 4 fold | about 4 fold | about 4 fold

— patent US10548854B2, “Manufacture of nonelectronic, active-infusion patch and device for transdermal delivery across skin” (The Hong Kong University of Science and Technology, priority 2012, dated 2020)
